Patent US20230210999A1, “TARGETED PROTEASE DEGRADATION (TED) PLATFORM” (EUBULUS BIOTHERAPEUTICS INC., priority 2020, published 2023)
Where two headings read alike, the source gives them in different places.

How the values were obtained:
Assay type in all cases: cell-based, human
MV4;11 cells = experiment: Cell proliferation experiment (Alamar blue, 72 h), MV4;11; settings: read-out: Inhibitory activity IC50 on MV4;11
Procedure, shortened: (§1)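 Log-phase cells seeded, then exposed 72 h to test compound in a 5-fold dilution series, duplicate wells per concentration. Growth read by Alamar blue fluorescence; […].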

NCIH82 cells = experiment: Cell proliferation experiment, NCI-H82; settings: read-out: Inhibitory activity IC50 on NCI-H82
Procedure, shortened: as §1

MDA-MB-231 cells = experiment: Cell proliferation experiment, MDA-MB-231
Procedure, shortened: as §1

PC-3 = experiment: Cell proliferation experiment, PC-3; settings: read-out: Inhibitory activity IC50 on PC-3
Procedure: Reagents: RPMI-1640 medium, McCoy's 5A medium, IMDM medium, MEM medium, L-15 medium, fetal bovine serum. Penicillin-Streptomycin double antibody, trypsin, etc., 2-mercaptoethanol, NEAA, pyruvate, etc.
The cells were cultured in conventional ways, and the cells should be passed at least 2 generations before plating. Cells at the logarithmic growth phase were collected, prepared into single cell suspensions and counted. The concentration of cells was adjusted to the desired concentration, and cells were inoculated into a 96-well cell culture plate at 100 μl per well. 100 μL of complete medium of the test compound were added to each well, set up 2 duplicate wells for each concentration, and diluted with a 5-fold gradient, and continued to culture for 72 h. All cells were subjected to IC50 test for corresponding samples. The experimental results are shown in Test Example 4.
The fluorescence intensity of each well was detected using the Alarm blue method, and IC50 was calculated.
IC50 was calculated according to the following formula:
Y=Max+(Min−Max)/[1+(X/IC50)×Slope]
wherein Min, Max and Slope represent the minimum, maximum and slope respectively.

[1] = Homo sapiens, MV4-11, MV4;11 cells
[2] = Homo sapiens, NCI-H82, NCI-H82 cells
[3] = Homo sapiens, MDA-MB-231, MDA-MB-231 cells, read-out: Inhibitory activity IC50 on MDA-MB-231
[4] = Homo sapiens, MDA-MB-231, read-out: Inhibitory activity IC50 on MDA-MB-231

Compound | IC50 (MV4;11 cells; [1]) [µM] | IC50 (NCIH82 cells; [2]) [µM] | IC50 (MDA-MB-231 cells; [3]) [µM] | IC50 (PC-3; Homo sapiens, PC-3, PC-3 cells) [µM] | IC50 (MV4;11 cells; MV4;11 cells) [µM] | IC50 (NCIH82 cells; NCI-H82 cells) [µM] | IC50 (MDA-MB-231 cells; MDA-MB-231 cells, read-out: Inhibitory activity IC50 on MDA-MB-231) [µM] | IC50 (PC-3; PC-3 cells) [µM] | IC50 (MDA-MB-231 cells; [4]) [µM]
O=C1CCC(N2Cc3c(NC(=O)COCCOCCOCC(O)Cn4cc(-c5ccc(Nc6ncc7c(n6)-c6ccc(Cl)cc6C(c6c(F)cccc6F)=NC7)cc5)nn4)cccc3C2=O)C(=O)N1 (stereo not shown) [UB-181072] | 0.1 to 1 | > 1 | > 1 | > 1 | – | – | – | – | –
CNC(=O)c1ccccc1Nc1nc(Nc2ccc(N3CCN(C(=O)NCCOCCOCCNCCC(=O)Nc4cccc5c4CN(C4CCC(=O)NC4=O)C5=O)CC3)cc2)ncc1Cl (stereo not shown) [UB-181043] | < 0.01 | 0.1 to 1 | > 1 | > 1 | – | – | – | – | –
CNC(=O)c1ccccc1Nc1nc(Nc2ccc(N3CCN(C(=O)NCCOCC(O)COCCOCCC(=O)Nc4ccc5c(c4)CN(C4CCC(=O)NC4=O)C5=O)CC3)cc2)ncc1Cl (stereo not shown) [UB-181074] | 0.01 to 0.1 | > 1 | > 1 | > 1 | – | – | – | – | –
CNC(=O)c1ccccc1Nc1nc(Nc2ccc(N3CCN(C(=O)N[C@H]4CC[C@@H](NCCCOCCC#Cc5cccc6c5CN(C5CCC(=O)NC5=O)C6=O)CC4)CC3)cc2)ncc1Cl (stereo partly shown) [UB-181087] | < 0.01 | 0.1 to 1 | > 1 | 0.1 to 1 | – | – | – | – | –
CNC(=O)c1ccccc1Nc1nc(Nc2ccc(N3CCN(C(=O)N[C@H]4CC[C@@H](NCCCOCCC#Cc5ccc6c(c5)CN(C5CCC(=O)NC5=O)C6=O)CC4)CC3)cc2)ncc1Cl (stereo partly shown) [UB-181084] | < 0.01 | 0.1 to 1 | 0.1 to 1 | 0.1 to 1 | – | – | – | – | –
CNC(=O)c1ccccc1Nc1nc(Nc2ccc(N3CCN(C(=O)NCCOCC(=O)COCCOCCC(=O)Nc4ccc5c(c4)CN(C4CCC(=O)NC4=O)C5=O)CC3)cc2)ncc1Cl (stereo not shown) [UB-181086] | 0.01 to 0.1 | 0.1 to 1 | > 1 | > 1 | – | – | – | – | –
CNC(=O)c1ccccc1Nc1nc(Nc2ccc(N3CCN(C(=O)NCCOCCNCC(=O)Nc4cccc5c4CN(C4CCC(=O)NC4=O)C5=O)CC3)cc2)ncc1Cl (stereo not shown) [UB-181068] | 0.01 to 0.1 | > 1 | > 1 | > 1 | – | – | – | – | –
O=C1CCC(N2Cc3cc(NC(=O)CCOCCNCCOCCn4cc(-c5ccc(Nc6ncc7c(n6)-c6ccc(Cl)cc6C(c6c(F)cccc6F)=NC7)cc5)nn4)ccc3C2=O)C(=O)N1 (stereo not shown) [UB-181041] | > 1 | > 1 | > 1 | > 1 | – | – | – | – | –
CNC(=O)c1ncccc1Nc1nc(Nc2ccc(N3CCN(C(=O)N[C@H]4CC[C@@H](NCCOCCC#Cc5ccc6c(c5)CN(C5CCC(=O)NC5=O)C6=O)CC4)CC3)cc2)ncc1C#N (stereo partly shown) [UB-181117] | 0.01 to 0.1 | > 1 | > 1 | > 1 | – | – | – | – | –
CNC(=O)c1ccccc1Nc1nc(Nc2ccc(N3CCN(C(=O)NCCCOCCCNCCC#Cc4ccc5c(c4)CN(C4CCC(=O)NC4=O)C5=O)CC3)cc2)ncc1Cl (stereo not shown) [UB-181094] | < 0.01 | 0.1 to 1 | > 1 | > 1 | – | – | – | – | –
CNC(=O)c1ccccc1Nc1nc(Nc2ccc(N3CCN(C(=O)NCCCOCC(=O)COCC#Cc4cccc5c4CN(C4CCC(=O)NC4=O)C5=O)CC3)cc2)ncc1Cl (stereo not shown) [UB-181083] | 0.01 to 0.1 | > 1 | > 1 | > 1 | – | – | – | – | –
CNC(=O)c1ccccc1Nc1nc(Nc2ccc(N3CCN(C(=O)NCCOCCNCCOCCC(=O)Nc4cccc5c4CN(C4CCC(=O)NC4=O)C5=O)CC3)cc2)ncc1Cl (stereo not shown) [UB-181051] | 0.01 to 0.1 | > 1 | > 1 | > 1 | – | – | – | – | –
CNC(=O)c1ccccc1Nc1nc(Nc2ccc(N3CCN(C(=O)NCCOCCOCC(N)COCCC(=O)Nc4cccc5c4CN(C4CCC(=O)NC4=O)C5=O)CC3)cc2)ncc1Cl (stereo not shown) [UB-181073] | < 0.01 | > 1 | > 1 | > 1 | – | – | – | – | –
CNC(=O)c1ccccc1Nc1nc(Nc2ccc(N3CCN(C(=O)N[C@H]4CC[C@@H](NCCOCCC#Cc5ccc6c(c5)CN(C5CCC(=O)NC5=O)C6=O)CC4)CC3)cc2)ncc1C#N (stereo partly shown) [UB-181123] | – | – | – | – | < 0.01 | 0.1 to 1 | 0.1 to 1 | 0.01 to 0.1 | –
CNC(=O)c1ccccc1Nc1nc(Nc2ccc(N3CCN(C(=O)NCCOCCOCCCNCC(=O)Nc4ccc5c(c4)CN(C4CCC(=O)NC4=O)C5=O)CC3)cc2)ncc1Cl (stereo not shown) [UB-181047] | 0.01 to 0.1 | 0.1 to 1 | > 1 | > 1 | – | – | – | – | –
CNC(=O)c1ccccc1Nc1nc(Nc2ccc(N3CCN(C(=O)NCCOCCOCCNCCC(=O)Nc4ccc5c(c4)CN(C4CCC(=O)NC4=O)C5=O)CC3)cc2)ncc1Cl (stereo not shown) [UB-181039] | 0.01 to 0.1 | 0.1 to 1 | > 1 | > 1 | – | – | – | – | –
CNC(=O)c1ccccc1Nc1nc(Nc2ccc(N3CCN(C(=O)NCCCNCCOCC(=O)Nc4ccc5c(c4)CN(C4CCC(=O)NC4=O)C5=O)CC3)cc2)ncc1Cl (stereo not shown) [UB-181062] | 0.01 to 0.1 | 0.1 to 1 | > 1 | > 1 | – | – | – | – | –
CNC(=O)c1ccccc1Nc1nc(Nc2ccc(N3CCN(C(=O)NCCOCC(COCCOCCC(=O)Nc4ccc5c(c4)CN(C4CCC(=O)NC4=O)C5=O)NC)CC3)cc2)ncc1Cl (stereo not shown) [UB-181090] | 0.01 to 0.1 | > 1 | – | > 1 | – | – | – | – | > 1
CNC(=O)c1ccccc1Nc1nc(Nc2ccc(N3CCN(C(=O)NCCOCC(COCCOCCC(=O)Nc4cccc5c4CN(C4CCC(=O)NC4=O)C5=O)NC)CC3)cc2)ncc1Cl (stereo not shown) [UB-181088] | < 0.01 | > 1 | – | > 1 | – | – | – | – | > 1
NC(=O)c1ccccc1Nc1nc(Nc2ccc(C3CCN(C(=O)N[C@H]4CC[C@H](NCCOCCC#Cc5cccc6c5CN(C5CCC(=O)NC5=O)C6=O)CC4)CC3)cc2)ncc1Cl (stereo partly shown) [UB-181147] | < 0.01 | 0.1 to 1 | 0.1 to 1 | 0.1 to 1 | – | – | – | – | –
CNC(=O)c1ccccc1Nc1nc(Nc2ccc(N3CCN(C(=O)NCCNCCOCC(=O)Nc4ccc5c(c4)CN(C4CCC(=O)NC4=O)C5=O)CC3)cc2)ncc1Cl (stereo not shown) [UB-181058] | 0.01 to 0.1 | 0.1 to 1 | > 1 | > 1 | – | – | – | – | –
O=C1CCC(N2Cc3cc(NC(=O)CCOCCOCCOCCN[C@H]4CC[C@@H](NC(=O)[C@]5(Cc6cccc(Nc7nccs7)n6)CC[C@@H](Oc6cccc(Cl)c6F)CC5)CC4)ccc3C2=O)C(=O)N1 (stereo partly shown) [UB-181038] | > 1 | > 1 | > 1 | > 1 | – | – | – | – | –
